Patent publication US7005418B1, “Method for the therapeutic management of extrauterine proliferation of endometrial tissue, chronic pelvic pain and fallopian tube obstruction” (Zentaris GmbH, priority 1999, dated 2006)
Non-standard residues stand in square brackets, D forms with d. Residues, ends and D or L forms follow the SMILES beside them. dPhe(4-Cl) = N[C@H](Cc1ccc(Cl)cc1)C(=O)O; d2Nal = N[C@H](Cc1ccc2ccccc2c1)C(=O)O; dCit = NC(=O)NCCC[C@@H](N)C(=O)O; d3Pal = N[C@H](Cc1cccnc1)C(=O)O

Columns and labels:
[1] = system: patients with confirmed endometriosis; assay: Weekly s.c. LHRH-antagonist treatment for 8 weeks in patients with endometriosis: clinical outcome and tolerability (2nd look laparascopy, histological biopsies); type: in vivo, human (patients); conditions: for hot flushes or other (estradiol) withdrawal symptoms / proliferation of the endometrium at the end of treatment (histological biopsies): patients with endometriosis, 3 mg weekly for 8 weeks
Method: (§1) The weekly administration of an adequate dose of an LHRH antagonist, e.g. 3 mg Cetrotide® s.c./ per week over a period of eight weeks leads to a controlled suppression of estrogen secretion so that serum concentrations between about 35 pg/ml and about 80 pg/ml, preferably between about 45–75 pg/ml, more preferably between about 50–75 pg/ml are obtained. […] Also the development of osteoporosis can be avoided.

estradiol secretion = assay: Weekly s.c. LHRH-antagonist treatment for 8 weeks in patients with endometriosis: estradiol serum levels; type: in vivo, human (patients); conditions: weekly dose of 1 mg resp. 3 mg once per week
Method: 3 mg once per week. The estradiol serum levels are between about 35–80 pg/ml, preferably between about 45–75 pg/ml, more preferably between about 50–75 pg/ml.
as §1

[2] = nine patients with confirmed endometriosis, 3 mg s.c. weekly for 8 weeks

Row | SMILES | ovarian cyst formation [1, 2] | progress of the disease, confirmed by 2nd look laparascopy [1, 2] | hot flushes or other (estradiol) withdrawal symptoms [1] | proliferation of the endometrium at the end of treatment (histological biopsies) [1] | estradiol serum levels (FIG. 2) (estradiol secretion) [pg/mL]
1 | CC(=O)N[C@H](Cc1ccc2ccccc2c1)C(=O)N[C@H](Cc1ccc(Cl)cc1)C(=O)N[C@H](Cc1cccnc1)C(=O)N[C@@H](CO)C(=O)N[C@@H](Cc1ccc(O)cc1)C(=O)N[C@H](CCCNC(N)=O)C(=O)N[C@@H](CC(C)C)C(=O)N[C@@H](CCCNC(=N)N)C(=O)N1CCC[C@H]1C(=O)N[C@H](C)C(N)=O [Cetrorelix acetate] (Ac-[d2Nal][dPhe(4-Cl)][d3Pal]SY[dCit]LRP[dA]-NH2) | No ovarian cyst formation occurred | without any progress of the disease | avoiding any hot flushes or other withdrawal symptoms | no proliferation of the endometrium | –
2 | CC(=O)N[C@H](Cc1ccc2ccccc2c1)C(=O)N[C@H](Cc1ccc(Cl)cc1)C(=O)N[C@H](Cc1cccnc1)C(=O)N[C@@H](CO)C(=O)N[C@@H](Cc1ccc(O)cc1)C(=O)N[C@H](CCCNC(N)=O)C(=O)N[C@@H](CC(C)C)C(=O)N[C@@H](CCCNC(=N)N)C(=O)N1CCC[C@H]1C(=O)N[C@H](C)C(N)=O [Cetrorelix] (Ac-[d2Nal][dPhe(4-Cl)][d3Pal]SY[dCit]LRP[dA]-NH2) | – | – | without any signs of estradiol withdrawal symptoms | without proliferation of the endometrium | 35 to 80
